Each molecule was assayed against T1, PRMT5/MEP50 (Homo sapiens, UniProt O14744) (assay: PRMT5 Biochemical Assay (PRMT5/MEP50 enzyme assay on peptide substrate, 3H-SAM Flashplate)). Details: Table D-2; read-out: Biochemical IC50.
T1 construct: Expressed full-length human Flag-PRMT5/6His-MeP50 protein complex was purified; made in house; host or cells: Spodoptera frugiperda (SF9) insect cells, baculovirus (pDEST8)
T1 sequence (O14744 with tags, fused parts or gaps): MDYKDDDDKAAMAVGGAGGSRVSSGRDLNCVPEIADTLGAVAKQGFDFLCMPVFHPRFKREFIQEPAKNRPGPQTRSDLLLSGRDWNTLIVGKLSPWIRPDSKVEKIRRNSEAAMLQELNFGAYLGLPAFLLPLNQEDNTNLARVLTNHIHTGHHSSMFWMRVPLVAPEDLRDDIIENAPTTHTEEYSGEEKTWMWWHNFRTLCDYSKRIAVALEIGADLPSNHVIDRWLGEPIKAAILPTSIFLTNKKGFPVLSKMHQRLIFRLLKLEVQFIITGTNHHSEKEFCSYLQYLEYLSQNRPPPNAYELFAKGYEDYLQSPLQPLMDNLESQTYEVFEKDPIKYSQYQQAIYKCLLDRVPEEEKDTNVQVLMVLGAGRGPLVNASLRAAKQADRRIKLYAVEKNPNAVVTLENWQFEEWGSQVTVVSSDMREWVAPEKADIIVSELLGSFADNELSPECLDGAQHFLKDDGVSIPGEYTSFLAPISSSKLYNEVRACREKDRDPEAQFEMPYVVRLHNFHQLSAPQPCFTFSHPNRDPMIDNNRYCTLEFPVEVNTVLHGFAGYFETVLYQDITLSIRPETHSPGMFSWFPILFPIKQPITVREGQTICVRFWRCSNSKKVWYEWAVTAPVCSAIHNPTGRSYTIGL
T1 sequence (Q9BQA1 with tags, fused parts or gaps partner limits assumed): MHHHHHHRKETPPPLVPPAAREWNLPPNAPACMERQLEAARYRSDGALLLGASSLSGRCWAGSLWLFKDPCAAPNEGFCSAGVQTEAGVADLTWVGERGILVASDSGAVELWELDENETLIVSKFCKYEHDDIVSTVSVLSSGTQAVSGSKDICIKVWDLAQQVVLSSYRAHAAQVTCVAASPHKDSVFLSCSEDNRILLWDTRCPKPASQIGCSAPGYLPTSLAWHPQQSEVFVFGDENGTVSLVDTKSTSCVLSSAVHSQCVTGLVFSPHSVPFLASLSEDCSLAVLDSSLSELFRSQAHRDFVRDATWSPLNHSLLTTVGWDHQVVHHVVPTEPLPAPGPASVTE
`OC(COc1ccc(-n2cncn2)cc1)CN1CCc2ccccc2C1` (stereo not shown) [Compound D9] was tested, and the IC50 was 1 to 10 µM.
`OC(COc1cccc2ccc(N3CCOCC3)nc12)CN1CCc2ccccc2C1` (stereo not shown) [Compound D15] showed an IC50 of 1 to 10 µM.
`Cc1ccc(-c2cccc(OCC(O)CN3CCc4ccccc4C3)c2)cn1` (stereo not shown) [Compound D78] showed an IC50 of 1 to 10 µM.
Work on `OC(COc1cccc(-c2ccncc2)c1)CN1CCc2ccccc2C1` (stereo not shown) [Compound D97] yielded an IC50 of 1 to 10 µM.
Molecule `OC(COc1cccc(-c2cccc(Cl)c2)c1)CN1CCc2ccccc2C1` (stereo not shown) [Compound D91] has an IC50 of 1 to 10 µM.
With `COc1cccc2c1CCN(CC(O)COc1cccc(-c3ccc4ncn(C)c4c3)c1)C2` (stereo not shown) [Compound D142] the IC50 was 1 to 10 µM.
`Oc1ccc(-c2cccc(OCC(O)CN3CCc4ccccc4C3)c2)cc1` (stereo not shown) [Compound D96] gave an IC50 of 1 to 10 µM.
For `OC(COc1cccc(-c2cc(Cl)cc(C(F)(F)F)c2)c1)CN1CCc2ccccc2C1` (stereo not shown) [Compound D128], the IC50 was 1 to 10 µM.
Molecule `CC1Cc2ccccc2CN1CC(O)COc1cccc(CNC2CCCC2)c1` (stereo not shown) [Compound D51] has an IC50 greater than 40 µM.
`OC(COc1cccc(CNC2CCCCC2)c1)CN1CCc2ccccc2C1` (stereo not shown) [Compound D4] was tested, and the IC50 was 0.101 to 1 µM.
Molecule `O=C(Nc1ccccn1)c1cccc(OCC(O)CN2CCc3ccccc3C2)c1` (stereo not shown) [Compound D267] has an IC50 of 0.101 to 1 µM.
Work on `O=C(Cn1ccc2cnc(-c3cccc(OCC(O)CN4CCc5ccccc5C4)c3)nc21)N1CCCC1` (stereo not shown) [Compound D231] yielded an IC50 of 0.101 to 1 µM.
`OC(COc1cccc(-c2ccncc2F)c1)CN1CCc2ccccc2C1` (stereo not shown) [Compound D190] showed an IC50 of 1 to 10 µM.
Molecule `Cc1cccc2c1CN(CC(O)COc1cccc(-c3ccc4ncn(C)c4c3)c1)CC2` (stereo not shown) [Compound D192] has an IC50 of 1 to 10 µM.
For `CN1CC(n2cnc3ccc(-c4ccnc(NCC(O)CN5CCc6ccccc6C5)c4)cc32)C1` (stereo not shown) [Compound D230], the IC50 was less than 0.1 µM.
With `COc1c(COCC(O)CN2CCc3ccccc3C2)ccc2ccccc12` (stereo not shown) [Compound D279] the IC50 was 1 to 10 µM.
Molecule `COc1ccc2c(c1)CN(CC(O)COc1cccc(-c3ccc4ncn(C)c4c3)c1)CC2` (stereo not shown) [Compound D177] has an IC50 of 10 to 40 µM.
For `Cn1cnc2ccc(-c3cccc(OCC(O)CN4CCc5c(Cl)cccc5C4)c3)cc21` (stereo not shown) [Compound D215], the IC50 was 1 to 10 µM.
`OC(COc1cccc(-c2cccc(Oc3ccccc3)c2)c1)CN1CCc2ccccc2C1` (stereo not shown) [Compound D55] gave an IC50 of 1 to 10 µM.
In the case of `OC(COCc1ccc(Cl)cc1Cl)CN1CCc2ccccc2C1` (stereo not shown) [Compound D281], the IC50 is reported as 1 to 10 µM.
With `OC(COc1cccc(C2=CCCCC2)c1)CN1CCc2ccccc2C1` (stereo not shown) [Compound D57] the IC50 was 1 to 10 µM.
Molecule `Cn1cc2cc(-c3cccc(OCC(O)CN4CCc5ccccc5C4)c3)ccc2n1` (stereo not shown) [Compound D115] has an IC50 of 1 to 10 µM.
Work on `Cn1cncc1C(=O)Nc1cccc(OCC(O)CN2CCc3ccccc3C2)c1` (stereo not shown) [Compound D195] yielded an IC50 of 1 to 10 µM.
With `OC(COc1cccc(OCc2ccccc2)c1)CN1CCc2ccccc2C1` (stereo not shown) [Compound D20] the IC50 was 1 to 10 µM.
In the case of `OC(COc1cccc(N2CCc3[nH]nc(-c4ccccc4)c3C2)c1)CN1CCc2ccccc2C1` (stereo not shown) [Compound D194], the IC50 is reported as 1 to 10 µM.
With `COc1ccccc1-c1cccc(OCC(O)CN2CCc3ccccc3C2)c1` (stereo not shown) [Compound D71] the IC50 was 1 to 10 µM.
`OC(COc1ccc(OCC(O)CN2CCc3ccccc3C2)cc1)CN1CCc2ccccc2C1` (stereo not shown) [Compound D3] was tested, and the IC50 was 0.101 to 1 µM.
`CN(CC(O)CN1CCc2ccccc2C1)c1cccc(C(=O)NC2CCOCC2)c1` (stereo not shown) [Compound D99] gave an IC50 of 10 to 40 µM.
`OC(COCc1ccccn1)CN1CCc2ccccc2C1` (stereo not shown) [Compound D282] gave an IC50 of 10 to 40 µM.
`OC(COC1CCN(c2ccccc2)C1)CN1CCc2ccccc2C1` (stereo not shown) [Compound D175] gave an IC50 of 1 to 10 µM.
Molecule `CC(C)(C)OC(=O)N1CCC(OCC(O)CN2CCc3ccccc3C2)C1` (stereo not shown) [Compound D287] has an IC50 of 1 to 10 µM.

Same assay, conditions: Table E-2; read-out: Biochemical IC50
Molecule `OC(COc1cccc(CNC2CCCC2)c1)CN1Cc2ccccc2C1` (stereo not shown) [Compound E20.] has an IC50 of 1 to 10 µM.
With `O=C(COc1cccc2cccnc12)NC[C@H](O)CN1Cc2ccccc2C1` [Compound E4.] the IC50 was less than 0.1 µM.
`O=C(NCC(O)CN1Cc2ccccc2C1)c1cccc(-c2ccccn2)c1` (stereo not shown) [Compound E13.] was tested, and the IC50 was 0.101 to 1 µM.

Each molecule was assayed on Z-138 cells (assay: Z-138 Proliferation Assay (Cell Titer Glo, 5 days)). Details: Homo sapiens, Table D-2.
Assay type: cell-based
Text: Z-138 Proliferation Assay
Z-138 suspension cells were purchased from ATCC (American Type Culture Collection, Manassas, Va.). RPMI/Glutamax medium, penicillin-streptomycin, heat inactivated fetal bovine serum were purchased from Life Technologies, Grand Island, N.Y., USA. V-bottom polypropylene 384-well plates were purchased from Greiner Bio-One, Monroe, N.C., USA. Cell culture 384-well white opaque plates were purchased from Perkin Elmer, Waltham, Mass., USA. Cell-Titer Gb® was purchased from Promega Corporation, Madison, Wis., USA. SpectraMax M5 plate reader was purchased from Molecular Devices LLC, Sunnyvale, Calif., USA.
Z-138 suspension cells were maintained in growth medium (RPMI 1640 supplemented with 10% v/v heat inactivated fetal bovine serum and cultured at 37° C. under 5% CO2. Under assay conditions, cells were incubated in assay medium (RPMI 1640 supplemented with 10% v/v heat inactivated fetal bovine serum and 100 units/mL penicillin-streptomycin) at 37° C. under 5% CO2.
For the assessment of the effect of compounds on the proliferation of the Z-138 cell line, exponentially growing cells were plated in 384-well white opaque plates at a density of 10,000 cells/ml in a final volume of 50 μl of assay medium. A compound source plate was prepared by performing triplicate nine-point 3-fold serial dilutions in DMSO, beginning at 10 mM (final top concentration of compound in the assay was 20 μM and the DMSO was 0.2%). A 100 nL aliquot from the compound stock plate was added to its respective well in the cell plate. […] After addition of compounds, assay plates were incubated for 5 days at 37° C., 5% CO2, relative humidity >90%.
Cell viability was measured by quantitation of ATP present in the cell cultures, adding 35 μl of Cell Titer Glo® reagent to the cell plates. Luminescence was read in the SpectraMax M5 microplate reader. The concentration of compound inhibiting cell viability by 50% was determined using a 4-parametric fit of the normalized dose response curves.
With `O[C@H](COc1cccc(CNC2CCCC2)c1)CN1CCc2ccccc2C1` [Compound D22] the EC50 was 10 to 40 µM.
`OC(COc1ccc(-n2cncn2)cc1)CN1CCc2ccccc2C1` (stereo not shown) [Compound D9] was tested, and the EC50 was greater than 20 µM.
Molecule `O[C@@H](COc1cccc(CNC2CCCC2)c1)CN1CCc2ccccc2C1` [Compound D23] has an EC50 of 10 to 40 µM.
